Consider five compounds from patent publication EP3828186B1.

Like-named read-outs stand apart in the source and are kept apart here.

The conditions of the data set: rcm bond, Grubbs II.

Take `C[C@@H]1/C=C/C[C@H](NC(=O)OC(C)(C)C)c2cc(ccn2)-c2c(cnn2C)NC1=O`: the ring closure, yield of all isomers (from C=CC[C@H](NC(=O)OC(C)(C)C)c1cc(-c2c(NC(=O)[C@H](C)C=C)cnn2C)ccn1, DCE, 34.7 mM, 120.0 °C, 0.5 h) amounted to 23%.

With `[2H]C([2H])([2H])n1ncc2c1-c1ccnc(c1)[C@@H](NC(=O)OC(C)(C)C)CC=C[C@@H](C)C(=O)N2`, under “from [2H]C([2H])([2H])n1ncc(NC(=O)[C@H](C)C=C)c1-c1ccnc([C@H](CC=C)NC(=O)OC(C)(C)C)c1, DCE, 13.2 mM, 120.0 °C, 0.5 h”, the ring closure, yield of all isomers stood at 26%.

`C[C@@H]1/C=C/C[C@H](NC(=O)OC(C)(C)C)c2cc(ccn2)-c2c(cnn2C(F)F)NC1=O` showed a ring closure, yield of all isomers (from C=CC[C@H](NC(=O)OC(C)(C)C)c1cc(-c2c(NC(=O)[C@H](C)C=C)cnn2C(F)F)ccn1, EtOAc, 5.0 mM, 77.0 °C, 24.0 h) of 76%.

Take `C[C@@H]1/C=C/C[C@H](NC(=O)OCc2ccccc2)c2cc(ccn2)-c2c(cnn2COCC[Si](C)(C)C)NC1=O`: under “from C=CC[C@H](NC(=O)OCc1ccccc1)c1cc(-c2c(NC(=O)[C@H](C)C=C)cnn2COCC[Si](C)(C)C)ccn1, DCE, 108.0 mM, 120.0 °C, 0.5 h”, the ring closure, yield of all isomers worked out at 42%.

As for `C[C@@H]1/C=C/C[C@H](NC(=O)OC(C)(C)C)c2ccnc(c2)-c2c(cnn2C)NC1=O`, the ring closure, yield of all isomers (from C=CC[C@H](NC(=O)OC(C)(C)C)c1ccnc(-c2c(NC(=O)[C@H](C)C=C)cnn2C)c1, DCE, 18.8 mM, 120.0 °C, 0.5 h) was found to be 19%.
